Molecules are shown by their SMILES. Read-outs that look alike come from different tables or passages of the source.

The test system of one series is SW480 cells. Description: Cell viability, sulforhodamine B (SRB) assay. The class given is cell-based. The following applies: Homo sapiens. Here is the method:
(§1) SW480 (colon adenocarcinoma) and SW620 (derived metastatic) malignant cell lines, and the non-malignant lines HaCaT (human keratinocytes) and CHO-K1 (Chinese Hamster Ovary), were obtained from the European Collection of Authenticated Cell Cultures (ECACC, Porton Down, Salisbury, UK). The cells were maintained in Dulbecco’s Modified Eagle’s Medium (DMEM), supplemented with 10% equine serum previously inactivated at 56 °C, 1% penicillin/streptomycin, and 1% non-essential amino acids, and incubated at 37 °C in an atmosphere with 5% CO2. To carry out the experiments, the serum was diluted to 3% and additionally supplemented with […] insulin, […] transferrin, and 5 ng/mL selenium. Cells were used for experimentation when they reached 80–90% confluence, using a 1X trypsin enzymatic disintegration method. To avoid contamination by Mycoplasma spp., cell cultures were periodically analyzed by polymerase chain reaction (PCR).
(§2) Cell viability was evaluated with a sulforhodamine B (SRB) assay. This technique provides an index of protein contents in living and adherent cells, whose optical density can be related to cell concentration. Initially, 20,000 cells were seeded per well in 96-well culture plates. An initial adherence period of 24 h was performed at 37 °C, 5% CO2, and after this, the medium was replaced by another that contained the hybrid compounds in different concentrations. Then, the cells were left incubating for 24 and 48 h under the same conditions previously described. After the respective incubation times, the cells were fixed with trichloroacetic acid (50% v/v) for 1 h at 4 °C and stained with 0.4% (p/v) of SRB. Subsequently, washings with 1% acetic acid were carried out to eliminate possible nonspecific bindings, and after solubilization with 10 mM Tris-base, the absorbance was read at 492 nm in a microplate reader (Mindray MR-96A). All the experiments were carried out in triplicate.

In series [1] the test system is SW620 cells. The experiment in a line: Cell viability, sulforhodamine B (SRB) assay. The class given is cell-based, human. Conditions: Homo sapiens. As for the experimental part: as §1, §2
In general terms: The SRB assay estimates cell density from bound dye.

A further series has as its system HaCaT cells. The experiment in a line: Cell viability, sulforhodamine B (SRB) assay, non-malignant cells. The class given is cell-based. The following applies: Homo sapiens. As for the experimental part:
as §1, §2

The next series relates to CHO-K1 cells. The series is described as above. The class given is cell-based, Chinese Hamster. Conditions: Cricetulus griseus. As for the experimental part:
as §1, §2

The test system of series [2] is SW620 cells. The arrangement: method as in PMID 36297411. The following applies: cited from earlier work.

As a reminder, the IC50 is the concentration at which inhibition is half-maximal. Regarding `O=c1[nH]cc(F)c(=O)[nH]1` [Compound 5-FU, 5-fluorouracil, reference compound], the IC50 was 1540 ± 128 µM in the series with SW480 cells (SW480, 24 h); 174 ± 19.1 µM with SW480 cells (SW480, 48 h); 899 ± 60.7 µM in the series on SW620 cells [1] (SW-620, 24 h, 24 h); 181 ± 18.8 µM with SW620 cells [1] (SW-620, 48 h, 48 h); more than 1000 µM in the series on HaCaT cells (24 h); 119 ± 2.84 µM in the series with HaCaT cells (48 h). Further, the IC50 in the series on CHO-K1 cells (CHO-K1, 24 h) is 544 ± 52.9 µM; in the series with CHO-K1 cells (CHO-K1, 48 h), 173 ± 14.6 µM.

The melting point is the temperature of the solid-liquid transition. Compound `COc1cc(/C=C/C(=O)c2ccc(OCCCn3cc(Cn4cc(F)c(=O)[nH]c4=O)nn3)cc2)ccc1O` [Compound 6b, (E)-5-fluoro-1-((1-(3-(4-(3-(4-hydroxy-3-methoxyphenyl)acryloyl)phenoxy)propyl)-1H-1,2,3-triazol-4-yl)methyl)pyrimidine-2,4(1H,3H)-dione] gave a melting point of 124 to 129 °C. In the series on SW480 cells (SW480, 24 h), this compound showed an IC50 of 48.4 ± 2.82 µM. Moreover, in the series on SW480 cells (SW480, 48 h), the IC50 worked out at 17.1 ± 0.8 µM. In the series with SW620 cells [1] (SW-620, 24 h, 24 h), this compound had a half-inhibitory concentration (IC50) of 90.2 ± 9.33 µM. Besides, the IC50 with SW620 cells [1] (SW-620, 48 h, 48 h) came to 33.7 ± 1.03 µM. Moreover, the midpoint of inhibition in the series with HaCaT cells (24 h), the IC50, lay at 58.1 ± 3.3 µM. This compound also displayed an IC50 in the series with HaCaT cells (48 h) of 18.4 ± 1.1 µM. Also, inhibition in the series on CHO-K1 cells (CHO-K1, 24 h) was half-maximal at 51.3 ± 2.86 µM (IC50). The compound further yielded an IC50 in the series on CHO-K1 cells (CHO-K1, 48 h) of 46.5 ± 1.34 µM.

Compound `COc1cc(/C=C/C(=O)c2ccc(OCCCCn3cc(Cn4cc(F)c(=O)[nH]c4=O)nn3)cc2)ccc1O` [Compound 6c, (E)-5-fluoro-1-((1-(4-(4-(3-(4-hydroxy-3-methoxyphenyl)acryloyl)phenoxy)butyl)-1H-1,2,3-triazol-4-yl)methyl)pyrimidine-2,4(1H,3H)-dione] registered a melting point of 61 to 65 °C. This compound also returned an IC50 in the series with SW480 cells (SW480, 24 h) of 30.4 ± 2.69 µM. This compound returned a half-maximal inhibitory concentration (IC50) with SW480 cells (SW480, 48 h) of 16.4 ± 0.97 µM. This compound yielded a half-inhibitory concentration (IC50) in the series with SW620 cells [1] (SW-620, 24 h, 24 h) of 83.9 ± 8.08 µM. Moreover, in the series on SW620 cells [1] (SW-620, 48 h, 48 h), the half-maximal inhibitory concentration (IC50) turned out to be 28.1 ± 1.85 µM. Also, the half-inhibitory concentration (IC50) with HaCaT cells (24 h) amounted to 45.4 ± 4.18 µM. The compound also had an IC50 in the series on HaCaT cells (48 h) of 19.1 ± 1.68 µM. Also, it took 26.3 ± 2.99 µM to reach half-maximal inhibition in the series on CHO-K1 cells (CHO-K1, 24 h) (IC50). For the same compound, the IC50 in the series on CHO-K1 cells (CHO-K1, 48 h) turned out to be 30.5 ± 2.18 µM.

For the compound `COc1cc(/C=C/C(=O)c2ccc(OCCCCCCCCn3cc(Cn4cc(F)c(=O)[nH]c4=O)nn3)cc2)ccc1O` [Compound 6f, (E)-5-fluoro-1-((1-(8-(4-(3-(4-hydroxy-3-methoxyphenyl)acryloyl)phenoxy)octyl)-1H-1,2,3-triazol-4-yl)methyl)pyrimidine-2,4(1H,3H)-dione], the melting point is 98 to 102 °C. Moreover, in the series on SW480 cells (SW480, 24 h), the half-inhibitory concentration (IC50) is more than 100 µM. The IC50 in the series with SW480 cells (SW480, 48 h) came to 29.7 ± 2.43 µM. The compound also came in with a half-inhibitory concentration (IC50) in the series on SW620 cells [1] (SW-620, 24 h, 24 h) of more than 100 µM. This compound also gave a concentration for half-maximal inhibition (IC50) in the series on SW620 cells [1] (SW-620, 48 h, 48 h) of more than 100 µM. The same compound yielded a 50% inhibitory concentration (IC50) with HaCaT cells (24 h) of more than 100 µM. This compound registered a half-maximal inhibitory concentration (IC50) with HaCaT cells (48 h) of 35.1 ± 4.74 µM. Also, in the series on CHO-K1 cells (CHO-K1, 24 h), the 50% inhibitory concentration (IC50) was more than 100 µM. Further, the IC50 in the series on CHO-K1 cells (CHO-K1, 48 h) is more than 100 µM.

`COc1cc(/C=C/C(=O)c2ccc(OCCCCCCCCCn3cc(Cn4cc(F)c(=O)[nH]c4=O)nn3)cc2)ccc1O` [Compound 6g, (E)-5-fluoro-1-((1-(9-(4-(3-(4-hydroxy-3-methoxyphenyl)acryloyl)phenoxy)nonyl)-1H-1,2,3-triazol-4-yl)methyl)pyrimidine-2,4(1H,3H)-dione] registered a melting point of 113 to 120 °C. The compound also yielded a concentration for half-maximal inhibition (IC50) in the series on SW480 cells (SW480, 24 h) of more than 100 µM. Moreover, the IC50 in the series with SW480 cells (SW480, 48 h) is more than 100 µM. For the same compound, the IC50 with SW620 cells [1] (SW-620, 24 h, 24 h) was more than 100 µM. In the series on SW620 cells [1] (SW-620, 48 h, 48 h), this compound had an IC50 of more than 100 µM. This compound showed an IC50 in the series with HaCaT cells (24 h) of more than 100 µM. This compound showed a 50% inhibitory concentration (IC50) in the series on HaCaT cells (48 h) of more than 100 µM. For the same compound, in the series on CHO-K1 cells (CHO-K1, 24 h), the IC50 was more than 100 µM. The same compound showed a half-maximal inhibitory concentration (IC50) in the series on CHO-K1 cells (CHO-K1, 48 h) of more than 100 µM.

Compound `COc1cc(/C=C/C(=O)c2ccc(OCCCCCCCCCCCCn3cc(Cn4cc(F)c(=O)[nH]c4=O)nn3)cc2)ccc1O` [Compound 6h, (E)-5-fluoro-1-((1-(12-(4-(3-(4-hydroxy-3-methoxyphenyl)acryloyl)phenoxy)dodecyl)-1H-1,2,3-triazol-4-yl)methyl)pyrimidine-2,4(1H,3H)-dione] yielded a melting point of 129 to 135 °C. The compound further displayed a half-maximal inhibitory concentration (IC50) in the series on SW480 cells (SW480, 24 h) of more than 100 µM. Also, the half-maximal inhibitory concentration (IC50) in the series on SW480 cells (SW480, 48 h) is more than 100 µM. The compound further gave a concentration for half-maximal inhibition (IC50) in the series on SW620 cells [1] (SW-620, 24 h, 24 h) of more than 100 µM. In the series with SW620 cells [1] (SW-620, 48 h, 48 h), this compound gave an IC50 of more than 100 µM. In the series with HaCaT cells (24 h), this compound came in with a half-inhibitory concentration (IC50) of more than 100 µM. The compound further had a concentration for half-maximal inhibition (IC50) in the series on HaCaT cells (48 h) of more than 100 µM. Besides, in the series with CHO-K1 cells (CHO-K1, 24 h), the half-inhibitory concentration (IC50) was more than 100 µM. Moreover, the IC50 with CHO-K1 cells (CHO-K1, 48 h) is more than 100 µM.

`COc1cc(/C=C/C(=O)CC(=O)/C=C/c2ccc(O)c(OC)c2)ccc1O` [Curcumin, curcumin]: the IC50 in the series with SW480 cells (SW480, 24 h) is 84.6 ± 6.6 µM; with SW480 cells (SW480, 48 h), 90.4 ± 1 µM; with SW620 cells [1] (SW-620, 24 h, 24 h), 164 ± 5.88 µM; in the series with SW620 cells [1] (SW-620, 48 h, 48 h), 22.2 ± 2.37 µM; with HaCaT cells (24 h), more than 100 µM; in the series on HaCaT cells (48 h), 28.8 ± 2.33 µM. The IC50 in the series with CHO-K1 cells (CHO-K1, 24 h) turned out to be 20.2 ± 2.41 µM; in the series on CHO-K1 cells (CHO-K1, 48 h) it was 36.3 ± 4.17 µM.

`O=c1[nH]c(=O)n(Cc2cn(CCCCCCCCCOc3cc(O)c4c(=O)c(-c5ccc(O)cc5)coc4c3)nn2)cc1F` [F]: the IC50 in the series with SW620 cells [2] was 36.8 ± 0.71 µM.

The record behind these values is paper PMC10144058, “New Hybrid Scaffolds Based on 5-FU/Curcumin: Synthesis, Cytotoxic, Antiproliferative and Pro-Apoptotic Effect” (Pharmaceutics, 2023).
